These results are taken from ChEMBL document CHEMBL1201862, “PubChem BioAssay data set” (2004).

Active and inactive are the calls of the source.

For orientation: IC50 means the concentration that gives 50% inhibition. For orientation: EC50 means the concentration giving half of the maximal effect.

Assay [1] concerns HEK293. In words: cells. It counts as functional, cell-based. The note with it: Homo sapiens.
In assay [2] the test system is HEK293. Put plainly: NOD2 signaling inhibitors in MDP-stimulated cells, cell-based, uHTS, luminescence (AID 2001). It counts as functional. The note with it: Homo sapiens.
Assay [3] in a line: inhibitors of firefly luciferase expression or activity, dose response, H4 neuroglioma cells, luminescence (AID 1990). It counts as functional, cell-based.
For assay [4], the system named is HEK293. Put plainly: cells. It counts as functional, cell-based. Particulars: Homo sapiens. The source holds these as a separate data set.
Assay [5] deals with Streptococcus. Put plainly: Group A Streptococcus viability loss, dose response, counter-screen for streptokinase expression inhibitor project, luminescence, BacTiterGlo (AID 1915).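 Also: potency for reduction of bacterial viability or growth.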 It counts as functional, organism-based. In general terms: The purpose of a counterscreen is to sort out artefacts and off-target activity.
Assay [6] in a line: inhibitors of intracellular T. cruzi replication, confirmation, NIH3T3 host cells, beta-gal luminescence (AID 2044).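 Also: intracellular parasites grown in NIH/3T3 mouse fibroblasts as host cells; luminescent beta-galactosidase reporter signal from transgenic T. cruzi replicating inside host cells; inhibitors lower the luminescence signal.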 Type of assay: functional, cell-based.
Assay [7] is described as follows: inhibitors of SNCA 5'UTR-driven reporter translation, confirmation, H4 neuroglioma cells, luminescence (AID 1988). Type of assay: functional, cell-based.
Assay [8] has as its target Nucleotide-binding oligomerization domain-containing protein 2 (Homo sapiens, UniProt Q9HC29). Put plainly: NOD2 signaling inhibitors, cell-based, luminescence, uHTS, HEK293 (AID 1566). Type of assay: functional.
In assay [9] the target is T1, Mannose-6-phosphate isomerase (Homo sapiens, UniProt P34949).
T1 sequence (P34949 whole entry): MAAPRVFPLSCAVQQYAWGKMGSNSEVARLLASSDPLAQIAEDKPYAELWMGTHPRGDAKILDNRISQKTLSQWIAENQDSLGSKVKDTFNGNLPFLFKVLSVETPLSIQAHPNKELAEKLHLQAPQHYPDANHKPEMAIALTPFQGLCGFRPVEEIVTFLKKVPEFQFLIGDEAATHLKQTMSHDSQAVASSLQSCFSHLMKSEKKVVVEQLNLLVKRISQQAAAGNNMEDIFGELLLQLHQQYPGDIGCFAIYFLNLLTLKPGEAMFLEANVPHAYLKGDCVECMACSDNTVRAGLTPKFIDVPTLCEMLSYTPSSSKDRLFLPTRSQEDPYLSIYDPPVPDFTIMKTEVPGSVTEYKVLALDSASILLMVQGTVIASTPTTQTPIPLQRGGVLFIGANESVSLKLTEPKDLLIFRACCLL
In words: inhibitors of human PMI, primary screen, biochemical, fluorescence intensity, coupled assay (AID 1209).

The test system of assay [10] is INS1. Put plainly: beta cell apoptosis inhibitors, cytokine rescue, dose response, luminescence, retest (AID 449756).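 Also: cell death triggered by IL-1 beta plus TNF-alpha plus IFN-gamma mixture; protective hits raise ATP signal compared with cytokine alone wells.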 Type of assay: functional, cell-based. Particulars: Rattus norvegicus.
The nature of assay [11]: inhibitors of SNCA 5'UTR-driven translation, confirmation, luminescence, H4 neuroglioblastoma cells, dose confirmation (AID 2454).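 Also: H4 neuroglioblastoma cells carrying an alpha-synuclein 5'UTR luciferase reporter; potency for inhibition of the luciferase signal.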 Type of assay: functional, cell-based.
Assay [12] can be described thus: cytotoxicity toward NIH3T3 fibroblasts, dose response, counter-screen, cell-based, ATP luminescence, mouse fibroblasts (AID 2010).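 Also: cells exposed to compound for about 90 hours before reading.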 It counts as functional.
Assay [13] concerns HEK293. In words: NOD1 signaling inhibitors, primary screen, cell-based, luminescence, uHTS (AID 1578). It counts as functional. The note with it: Homo sapiens.
Assay [14] is described as follows: luciferase reporter signal reduction – luminescence, H4-C neuroglioblastoma cells, dose response (AID 2458).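 Also: H4 neuroglioblastoma cells stably carrying a luciferase reporter gene fusion.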 It counts as functional, cell-based. On the technique in general: In a reporter assay the amount or activity of a reporter protein is the signal.
The subject of assay [15] is Streptococcus sp. 'group A'. In words: growth inhibition of control SK(-) GAS strain, dose response, counter-screen for streptokinase expression inhibitor project, luminescence, kanamycin, BacTiterGlo, confirmation (AID 1900). It counts as functional, organism-based.
Assay [16] relates to HEK293. In words: cells. Type of assay: functional, cell-based. The note with it: Homo sapiens. This is another data set of the same source.
Assay [17] in a line: cells. Type of assay: functional, cell-based.
Assay [18] deals with T1, Mannose-6-phosphate isomerase. Put plainly: human PMI inhibitors, high substrate, primary screen, biochemical, fluorescence intensity, high mannose 6-phosphate (AID 1220).
Assay [19] is described as follows: Luminescence Cell-Based Dose Confirmation HTS to Identify Inhibitors of Polyadenylation. Type of assay: functional.
The target of assay [20] is T2, Estrogen receptor (Homo sapiens, UniProt P03372).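 Also: potency for inhibiting coactivator peptide recruitment to the receptor.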
T2 sequence (P03372 whole entry): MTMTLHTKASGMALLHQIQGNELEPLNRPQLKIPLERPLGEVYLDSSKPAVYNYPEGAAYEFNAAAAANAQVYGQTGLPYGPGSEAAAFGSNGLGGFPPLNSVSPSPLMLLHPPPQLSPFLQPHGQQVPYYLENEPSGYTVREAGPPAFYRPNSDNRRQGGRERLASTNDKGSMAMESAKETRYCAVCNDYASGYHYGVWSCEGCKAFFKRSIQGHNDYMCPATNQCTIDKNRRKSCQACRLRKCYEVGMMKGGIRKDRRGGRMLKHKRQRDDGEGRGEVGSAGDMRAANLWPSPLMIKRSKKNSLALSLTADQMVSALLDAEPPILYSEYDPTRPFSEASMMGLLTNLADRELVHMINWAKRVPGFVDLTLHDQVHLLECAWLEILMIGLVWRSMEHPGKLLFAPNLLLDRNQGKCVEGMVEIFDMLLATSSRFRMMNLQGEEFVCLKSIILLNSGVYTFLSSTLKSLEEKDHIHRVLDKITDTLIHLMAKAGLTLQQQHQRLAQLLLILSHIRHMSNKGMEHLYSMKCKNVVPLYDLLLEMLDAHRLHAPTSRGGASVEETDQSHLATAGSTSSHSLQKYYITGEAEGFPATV

Assay [21] concerns the target NADPH oxidase 1 (Homo sapiens, UniProt Q9Y5S8). Type of assay: functional, cell-based.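 Also: Cell-based assay with luminescence read-out, IC50 derived from inhibitor dose-response curves; intracellular ROS from endogenous NOX1 in intact HT29 colon cancer cells; potency of inhibitors that lower the ROS luminescence signal.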
Assay [22] has as its target FAD-linked sulfhydryl oxidase ALR (Homo sapiens, UniProt P55789). Put plainly: inhibitors of human ALR sulfhydryl oxidase, dose response, biochemical, H2O2 detection, luminescence, cherry-pick (AID 493248).
The nature of assay [23]: growth suppression of beta-catenin-knockout colon cells, dose response, cell-based, HCT116, human colon tumor (AID 1045).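 Also: HCT116 colon tumor cells with beta catenin knocked out; cells exposed to compound for 60 hours.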 It counts as functional.
Assay [24] can be described thus: cytotoxicity in KRAS-transformed pancreatic duct cells, primary screen, cell-based, fluorescence, HTS (AID 431). Particulars: Homo sapiens. Type of assay: functional.
Assay [25] is described as follows: growth suppression of PTEN-null colon cells, dose response, cell-based, HCT116 PTEN knockout (AID 1047).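 Also: HCT116 colon tumor cells with PTEN knocked out; cells exposed to compound for 60 hours before readout; potency for loss of cell viability measured by luminescence.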 Type of assay: functional.
Assay [26] in a line: cytotoxicity in HPDE-C7 cells, cell-based, fluorescence, HTS (AID 430). It counts as functional. The note with it: Homo sapiens.
Assay [27] concerns the target Peroxisome proliferator-activated receptor gamma/Nuclear receptor coactivator 2 (Homo sapiens, UniProt P37231). Put plainly: TR-FRET dose response biochemical High Throughput Screening assay for agonists of the steroid receptor coactivator 2 (SRC-2) recruitment by the peroxisome proliferator-activated receptor gamma (PPAR gamma): non-selective agonists. [Related pubchem assays: 1297, 1032 ]. Type of assay: functional.

In assay [28] the target is DNA (cytosine-5)-methyltransferase 1 (Homo sapiens, UniProt P26358). In words: DNMT1 methyltransferase inhibitors, confirmation, biochemical, fluorescent molecular beacon (AID 602386). Type of assay: functional.
Assay [29] addresses Phospholipase A2 (Homo sapiens, UniProt P04054). Type of assay: functional.
The target of assay [30] is NS3 (Hepatitis C virus, UniProt A3EZJ3). In words: PubChem AID 2173. Further details: species or system Hepacivirus hominis.
In assay [31] the target is Peroxisome proliferator-activated receptor gamma/Nuclear receptor coactivator 1 (Homo sapiens, UniProt P37231). Put plainly: TR-FRET dose response biochemical High Throughput Screening assay for agonists of the steroid receptor coactivator 1 (SRC-1) recruitment by the peroxisome proliferator-activated receptor gamma (PPAR gamma): non-selective agonists. [Related pubchem assays (depositor defined):AID1300, AID1808, AID504735, AID631]. It counts as protein assay. On the technique in general: In TR-FRET formats the signal depends on donor and acceptor labels being close together.

The target of assay [32] is Cysteine protease ATG4B (Homo sapiens, UniProt Q9Y4P1). Type of assay: functional.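 Also: Fluorescence-based dose-response confirmation assay measuring inhibition of ATG4B activity.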
Chain of Cysteine protease ATG4B (Q9Y4P1 whole entry): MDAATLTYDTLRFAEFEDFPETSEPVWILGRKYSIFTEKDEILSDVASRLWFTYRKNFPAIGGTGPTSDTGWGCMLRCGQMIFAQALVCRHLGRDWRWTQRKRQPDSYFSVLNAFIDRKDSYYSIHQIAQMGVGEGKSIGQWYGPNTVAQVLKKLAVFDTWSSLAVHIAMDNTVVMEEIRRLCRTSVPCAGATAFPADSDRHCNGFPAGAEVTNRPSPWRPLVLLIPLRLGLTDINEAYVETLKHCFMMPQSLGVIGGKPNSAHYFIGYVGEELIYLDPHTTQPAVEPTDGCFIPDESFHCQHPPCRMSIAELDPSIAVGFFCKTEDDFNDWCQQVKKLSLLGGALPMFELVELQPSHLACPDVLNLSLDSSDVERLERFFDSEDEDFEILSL
Assay [33] concerns the target Peroxisome proliferator-activated receptor gamma/Nuclear receptor coactivator 3 (Homo sapiens, UniProt P37231). Put plainly: TR-FRET dose response biochemical High Throughput Screening assay for agonists of the steroid receptor coactivator 3 (SRC-3) recruitment by the peroxisome proliferator-activated receptor gamma (PPAR gamma): non-selective agonists. [Related pubchem assays: 1301 (Confirmation screen.), 1048 (Primary screen.)]. It counts as functional.

The target of assay [34] is T3, Bcl-2-related protein A1 (Mus musculus, UniProt Q07440).
T3 sequence (Q07440 whole entry): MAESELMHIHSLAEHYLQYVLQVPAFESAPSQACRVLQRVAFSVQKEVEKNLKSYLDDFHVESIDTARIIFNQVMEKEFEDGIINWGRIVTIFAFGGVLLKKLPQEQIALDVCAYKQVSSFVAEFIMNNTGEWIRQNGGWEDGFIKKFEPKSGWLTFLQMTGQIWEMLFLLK
Put plainly: Bfl-1 binding inhibitors, SAR follow-up, biochemical, fluorescence polarization (AID 1070).

The target in assay [35] is T3, Bcl-2-related protein A1. In words: Bfl-1 inhibitors blocking BH3 peptide binding, confirmation, biochemical, TR-FRET, mouse Bfl-1 (AID 621).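 Also: TR-FRET binding of GST-Bfl-1 to FITC-labelled Bid peptide via terbium antibody.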
For assay [36], the target named is T4, Cytochrome P450 2C19 (Homo sapiens, UniProt P33261). In words: Cytochrome panel assay with activity outcomes. Panel member name: p450-cyp2c19 Compounds with AC50 equal or less than 10 uM are considered active. It counts as functional. Particulars: read-out: AC50.
T4 sequence (P33261 whole entry): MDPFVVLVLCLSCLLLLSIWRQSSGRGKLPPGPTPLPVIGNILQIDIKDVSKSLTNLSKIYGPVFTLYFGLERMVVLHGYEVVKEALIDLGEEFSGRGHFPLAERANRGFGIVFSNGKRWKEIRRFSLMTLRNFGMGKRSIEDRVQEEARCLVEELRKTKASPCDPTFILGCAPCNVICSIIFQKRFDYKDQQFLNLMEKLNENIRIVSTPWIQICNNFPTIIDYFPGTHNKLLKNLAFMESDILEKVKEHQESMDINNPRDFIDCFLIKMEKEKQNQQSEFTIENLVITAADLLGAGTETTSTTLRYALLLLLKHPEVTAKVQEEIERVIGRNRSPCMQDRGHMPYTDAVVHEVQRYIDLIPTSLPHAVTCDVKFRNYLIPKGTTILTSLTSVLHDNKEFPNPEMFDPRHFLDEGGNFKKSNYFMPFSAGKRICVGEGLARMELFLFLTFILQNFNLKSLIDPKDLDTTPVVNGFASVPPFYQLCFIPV
In assay [37] the target is Cytochrome P450 2D6 (Homo sapiens, UniProt P10635).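 Also: CYP2D6 member of a cytochrome P450 panel assay.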
For assay [38], the target named is T4, Cytochrome P450 2C19. Put plainly: qHTS Assay for Inhibitors and Substrates of Cytochrome P450 2C19. [Related pubchem assays: 410 ]. Type of assay: ADME. The note with it: read-out: Potency.
Assay [39] is described as follows: cells. Type of assay: functional.
The nature of assay [40]: A High Throughput Confirmatory Assay used to Identify Novel Compounds that Inhibit Mycobacterium Tuberculosis in the absence of Glycerol. It counts as functional.

Chain of FAD-linked sulfhydryl oxidase ALR (P55789 whole entry): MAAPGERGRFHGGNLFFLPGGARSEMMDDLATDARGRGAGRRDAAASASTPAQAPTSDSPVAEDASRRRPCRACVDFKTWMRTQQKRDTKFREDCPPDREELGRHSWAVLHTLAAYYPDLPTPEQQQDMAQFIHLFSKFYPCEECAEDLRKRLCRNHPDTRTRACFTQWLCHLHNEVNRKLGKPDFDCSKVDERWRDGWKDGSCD
Chain of Peroxisome proliferator-activated receptor gamma/Nuclear receptor coactivator 3 (P37231 whole entry): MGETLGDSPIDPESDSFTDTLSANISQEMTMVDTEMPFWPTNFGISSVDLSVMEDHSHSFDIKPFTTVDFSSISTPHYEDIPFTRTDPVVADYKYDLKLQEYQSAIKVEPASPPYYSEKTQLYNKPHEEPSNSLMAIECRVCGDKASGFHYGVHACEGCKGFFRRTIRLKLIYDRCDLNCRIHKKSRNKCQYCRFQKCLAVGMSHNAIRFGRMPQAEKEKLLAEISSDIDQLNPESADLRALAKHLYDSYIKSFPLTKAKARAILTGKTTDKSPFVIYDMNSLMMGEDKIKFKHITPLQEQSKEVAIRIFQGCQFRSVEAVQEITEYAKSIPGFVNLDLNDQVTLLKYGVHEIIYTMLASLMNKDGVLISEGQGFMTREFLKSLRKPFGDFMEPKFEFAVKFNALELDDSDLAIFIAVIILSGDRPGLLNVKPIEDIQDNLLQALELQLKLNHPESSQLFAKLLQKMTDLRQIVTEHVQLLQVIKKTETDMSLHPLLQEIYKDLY
Chain of Peroxisome proliferator-activated receptor gamma/Nuclear receptor coactivator 3 (Q9Y6Q9 whole entry, further chain): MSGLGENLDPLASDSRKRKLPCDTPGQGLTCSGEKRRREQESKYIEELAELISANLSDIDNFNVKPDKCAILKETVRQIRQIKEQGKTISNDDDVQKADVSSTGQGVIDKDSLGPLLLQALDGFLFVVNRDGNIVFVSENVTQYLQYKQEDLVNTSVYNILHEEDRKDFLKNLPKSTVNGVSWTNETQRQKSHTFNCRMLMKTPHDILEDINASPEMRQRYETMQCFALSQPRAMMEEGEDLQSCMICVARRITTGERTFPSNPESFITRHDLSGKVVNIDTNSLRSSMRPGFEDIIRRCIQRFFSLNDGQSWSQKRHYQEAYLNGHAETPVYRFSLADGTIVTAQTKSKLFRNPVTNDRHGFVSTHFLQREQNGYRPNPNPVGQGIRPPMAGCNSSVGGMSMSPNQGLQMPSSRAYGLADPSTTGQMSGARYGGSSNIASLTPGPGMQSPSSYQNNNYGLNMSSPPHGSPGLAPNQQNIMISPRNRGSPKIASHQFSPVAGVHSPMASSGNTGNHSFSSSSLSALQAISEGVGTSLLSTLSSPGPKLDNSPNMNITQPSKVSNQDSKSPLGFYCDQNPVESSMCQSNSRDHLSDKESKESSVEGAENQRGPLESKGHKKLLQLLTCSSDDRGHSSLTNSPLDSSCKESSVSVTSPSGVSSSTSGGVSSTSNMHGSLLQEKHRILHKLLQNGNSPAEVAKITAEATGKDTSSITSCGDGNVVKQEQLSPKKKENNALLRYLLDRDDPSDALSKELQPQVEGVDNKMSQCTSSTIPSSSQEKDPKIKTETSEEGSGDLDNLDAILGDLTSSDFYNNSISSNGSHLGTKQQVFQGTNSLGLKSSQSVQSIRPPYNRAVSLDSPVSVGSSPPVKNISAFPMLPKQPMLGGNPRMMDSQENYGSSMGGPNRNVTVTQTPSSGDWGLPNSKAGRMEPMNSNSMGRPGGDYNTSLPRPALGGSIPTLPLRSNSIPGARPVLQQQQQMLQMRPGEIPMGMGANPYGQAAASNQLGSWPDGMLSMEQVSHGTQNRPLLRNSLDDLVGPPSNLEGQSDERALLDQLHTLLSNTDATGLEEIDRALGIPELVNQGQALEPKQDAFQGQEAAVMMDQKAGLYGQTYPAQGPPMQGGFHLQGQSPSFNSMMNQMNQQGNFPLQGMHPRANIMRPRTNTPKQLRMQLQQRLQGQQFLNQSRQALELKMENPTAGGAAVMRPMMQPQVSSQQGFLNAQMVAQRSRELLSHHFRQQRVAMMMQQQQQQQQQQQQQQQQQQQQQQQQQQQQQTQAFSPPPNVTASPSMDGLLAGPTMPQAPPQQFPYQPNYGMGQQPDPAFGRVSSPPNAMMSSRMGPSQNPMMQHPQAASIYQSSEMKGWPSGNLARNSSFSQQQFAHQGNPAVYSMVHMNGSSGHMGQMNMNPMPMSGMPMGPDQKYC
Chain of Peroxisome proliferator-activated receptor gamma/Nuclear receptor coactivator 2 (P37231 whole entry): as the sequence (P37231 whole entry) above
Chain of Peroxisome proliferator-activated receptor gamma/Nuclear receptor coactivator 2 (Q15596 whole entry, further chain): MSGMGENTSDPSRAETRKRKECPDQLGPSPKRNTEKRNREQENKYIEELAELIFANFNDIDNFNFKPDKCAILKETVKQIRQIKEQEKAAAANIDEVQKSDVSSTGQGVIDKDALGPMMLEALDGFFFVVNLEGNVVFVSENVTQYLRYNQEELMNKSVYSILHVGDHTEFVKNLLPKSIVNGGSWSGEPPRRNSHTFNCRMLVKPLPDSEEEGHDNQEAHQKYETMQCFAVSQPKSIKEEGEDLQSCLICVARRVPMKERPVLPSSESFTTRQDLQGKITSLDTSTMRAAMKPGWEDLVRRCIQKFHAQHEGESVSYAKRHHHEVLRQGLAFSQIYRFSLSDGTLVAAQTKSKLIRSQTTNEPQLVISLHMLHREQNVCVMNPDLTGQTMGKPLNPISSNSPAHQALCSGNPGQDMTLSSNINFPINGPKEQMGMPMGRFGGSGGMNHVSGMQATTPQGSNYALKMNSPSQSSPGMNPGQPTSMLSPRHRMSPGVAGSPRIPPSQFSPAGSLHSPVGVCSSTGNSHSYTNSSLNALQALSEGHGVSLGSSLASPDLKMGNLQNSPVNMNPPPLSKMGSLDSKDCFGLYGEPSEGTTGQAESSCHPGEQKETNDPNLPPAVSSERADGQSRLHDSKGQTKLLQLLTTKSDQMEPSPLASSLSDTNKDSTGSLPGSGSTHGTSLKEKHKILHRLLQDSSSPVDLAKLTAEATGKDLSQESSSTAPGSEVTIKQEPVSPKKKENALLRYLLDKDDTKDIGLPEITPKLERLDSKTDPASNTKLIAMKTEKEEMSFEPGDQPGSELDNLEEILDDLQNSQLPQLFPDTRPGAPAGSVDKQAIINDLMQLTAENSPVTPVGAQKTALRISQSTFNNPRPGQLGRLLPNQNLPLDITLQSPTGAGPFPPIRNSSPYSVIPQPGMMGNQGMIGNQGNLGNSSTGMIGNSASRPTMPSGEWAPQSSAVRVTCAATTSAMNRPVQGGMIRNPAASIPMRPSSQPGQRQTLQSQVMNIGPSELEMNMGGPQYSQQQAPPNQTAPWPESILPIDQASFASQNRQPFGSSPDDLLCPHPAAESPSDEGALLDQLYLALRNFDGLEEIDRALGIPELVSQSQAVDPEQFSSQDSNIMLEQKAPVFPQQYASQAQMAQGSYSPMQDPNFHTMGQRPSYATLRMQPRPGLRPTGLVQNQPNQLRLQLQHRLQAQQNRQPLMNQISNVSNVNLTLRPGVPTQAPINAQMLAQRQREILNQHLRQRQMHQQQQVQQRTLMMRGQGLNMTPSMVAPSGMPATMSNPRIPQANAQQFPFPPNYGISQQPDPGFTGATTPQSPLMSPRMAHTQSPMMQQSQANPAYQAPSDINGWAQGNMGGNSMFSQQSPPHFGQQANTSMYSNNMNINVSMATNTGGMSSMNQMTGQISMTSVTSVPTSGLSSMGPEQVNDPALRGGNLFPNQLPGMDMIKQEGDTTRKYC

With `Oc1c(CN2CCN(c3ccccn3)CC2)cc(Cl)c2cccnc12`, the IC50 in assay [1] is > 20 µM (inactive); in assay [2], 4.88 µM (inactive); in assay [4], > 20 µM (inactive); in assay [9], > 50 µM (not active); in assay [16], 6.23 µM (active); in assay [18], > 50 µM (not active). Further, the EC50 in [3] is 2.52 µM (active); in [5] it was 5.45 µM (active); in assay [6] it was 0.942 µM (active); in [7], < 0.1 µM (active); in [8], 8.07 µM (active); in assay [11], > 12 µM (not active). The EC50 in [12] is 7.32 µM (active); in assay [13] it was 4.58 µM (active); in assay [14], 10.7 µM (active); in assay [15], 3.06 µM (active); in assay [17], > 12 µM (inconclusive). Also, in assay [10], the AC50 is 1.99 µM (active).
Regarding `O=C(O)c1ccc(SCc2cnc(Cl)s2)cc1`, the EC50 in assay [19] was > 120 µM (not active).
For `CCCc1cc(-n2ccnc2)n2c(nc3ccccc32)c1C#N`, in assay [20], the IC50 is 29.8 µM (active).
Regarding `Cc1ccc(-c2nc(-c3ccccc3)c(-c3ccccc3)[nH]2)cc1`, in assay [21], the IC50 is on record as > 17 µM (not active).
Regarding `CCN(CCNC(=O)C1CCN(Cc2nc(-c3cccc(Cl)c3)oc2C)CC1)c1ccccc1`, the AC50 in assay [22] is 0.024 µM (active). For the same molecule, the EC50 is 10.7 µM (active) in assay [23], > 20 µM (not active) in [24], 13.3 µM (active) in assay [25] and > 20 µM (not active) in assay [26].
For `O=C1NN(c2ccccc2)C(=O)/C1=C/c1ccc(Sc2cccc3ccccc23)o1`, the EC50 is 92.2 µM (not active) in [27], > 79.4 µM (inactive) in [31] and > 79.4 µM (not active) in [33]. The IC50 is 7.12 µM (active) in assay [28], 8.08 µM (active) in assay [29], 5.55 µM (active) in assay [30] and 8.56 µM (active) in assay [32].
Take `C[C@@H]1CN(C2=C(Cl)C(=O)N(c3ccc(Cl)c(Cl)c3)C2=O)CCN1`: the IC50 in assay [34] was 1.16 µM (active); in [35] it was 1.03 µM (active).
`O=[N+]([O-])c1cccc2c(Br)n[nH]c12`: the results for the AC50 in [36], in [37] and in assay [38] were 0.251 µM (inconclusive), 0.251 µM (inconclusive) and 0.001 µM (inconclusive), respectively.
As for `O=c1oc(-c2cccs2)nc2c1cnn2-c1ccccc1`, the IC50 in assay [39] is 4.92 µM (active); in assay [40], > 100 µM (active).
